Where a name gives a salt, the structure may show the parent alone. Read-outs that look alike come from different tables or passages of the source.
Assays:
[1] = tested on: morphine-dependent monkeys
mice [2] = tested on: mice
Method: Male mice weighing 18~22 g were used for the test and divided into 3 groups (10 for every group). […] The second group of mice was given a subcutaneous injection of lappaconitine hydrobromide (8 mg/kg) for 20 days. The third group was a control group and was given physiological saline. 6 hours after being given the last dose, all the mice were given an intraperitoneal injection of 10 mg/kg allyl dromaran, and then were placed in a cone cylinder cage (diameter=30 cm, height=35 cm). The number of jumps for each mouse in 60 minutes was recorded.

mice [3] = tested on: mice; remark: listed apart in the source
Method: In another case, male mice weighing 18-22 g were divided into four groups (10 for every group). Two groups of mice were injected subcutaneously with lappaconitine hydrobromide 7 times within 2 days. The initial dosage was 3.5 mg/kg. Then, additional doses of 0.5 mg/kg and 1.0 mg/kg were given for every injection in each group, respectively. […] The initial dosage was 2.5 mg/kg and an escalating dose schedule of 5, 10, 20, 30, 40, 50 mg/kg was applied. The fourth group of mice was used as control group and was given physiological saline. Two hours after the last injection, all the mice of the above four groups were injected with 50 mg/kg nalorphine through the intraperitoneal cavity. The number of jumps within 10 minutes in each group of mice were recorded.

Morphine-dependent Mice = format: in vivo, mouse; conditions: for Jumping Mice/Survived Mice, Day 1 after stopping drug / Jumping Mice/Survived Mice, Day 4 after stopping administration / Jumping Mice/Survived Mice, Day 5 of treatment: nalorphine 50 mg/kg
Method: In the first 4 days, administration was given once per 6 hours, four times a day. From day 5 through day 7, administration was given once every 8 hours, three times a day. On day 5 and day 8 of treatment, respectively, subcutaneous injections of nalorphine (50 mg/kg) were made to […].

[4] = Acute Toxicity Test, monkeys; format: in vivo, Macca Mulatta
[5] = Acute Toxicity Test, rats; format: in vivo, rat
[6] = Acute Toxicity Test, mice; format: in vivo, mouse; conditions: for LD50: mouse, in vivo, read-out: LD50 (95 % confidence limit)
Morphine-dependent rats = format: in vivo, Wister rat
Method: Wister male rats weighing 200-250 g were divided into 3 groups (10 for each group).
II Physiological saline 2 ml/kg. sc
III Lappaconitine hydrobromide 8 mg/kg. sc

Macaca mulatta = assay: Monkey addiction test (lappaconitine); format: in vivo
Method: Three of 6 Macaca mulatta weighing 2.75~4.75 kg were subcutaneously injected with lappaconitine twice a day. The initial dosage is 0.1 mg/kg, and the dose was successively escalated to the maximum tolerance dosage, 2 mg/kg within 50 days. Then, the tolerance dosage was maintained to the 53rd day, 67th day and 92nd day, respectively. […] On day 63 and day 92, the injections of lappaconitine to the monkeys was stopped. […] On day 29, 53, 59, 67 and 90, injections to the monkeys were discontinued and after 18 hours, subcutaneous injection of nalorphine (4 or 8 mg/kg) were given.

[7] = Subacute toxicity Test, monkeys; format: in vivo, Macca Mulatta
Method: Three Macca Mulatta weighing 2.75~4.75 kg were injected with lappaconitine subcutaneously twice a day. Initiated with 0.1 mg/kg, the dosage was increased successively to the highest tolerated dosage, 2 mg/kg within 50 days, and the last dosage was maintained to day 53, day 67 and day 92, respectively. The accumulated injective dosage was 196, 400 and 635 mg, respectively.

[8] = format: in vivo, Wister rat; conditions: 5 or 10 mg/kg ip a day, 30 days
Method: Ten Wister rats weighing 200~250 g were divided into 2 groups (5 for each group). Each group was given intraperitoneal injection of 5 mg/kg or 10 mg/kg of lappaconitine a day, respectively. The injection was continued for 30 days. 5 wister rats of a control group were given subcutaneous injections of saline (2 ml/kg). […].

[9] = format: in vivo, Wister rat; conditions: 8 to 14 mg/kg ip escalated, until day 28
Method: Another ten Wister rats were medicated with successively escalated doses, in other words, the rats were first injected with lappaconitine (8 mg/kg) intraperitoneally. After one week with 10 mg/kg; after 2 weeks with 12 mg/kg; after 16 days with 14 mg/kg; and the last dose was maintained until day 28.

[10] = tested on: mice dependent on cocaine
Method: In the same way as described above, subcutaneous injection of cocaine (10 mg/kg) were given to the mice twice a day, and the injection was continued for 7 days.

[11] = oral methadone vs injected morphine; cited from earlier work
[12] = 0.45 mg/g sc (so in the source)
[13] = nalorphine 50 mg/kg, 2 days: lappaconitine initial 3.5 mg/kg, total 45.5 mg/kg, 5 mice tested
[14] = 0.1 to 2 mg/kg sc twice a day, to day 53, 67 and 92

C=CCN1CC[C@]23c4c5ccc(O)c4O[C@H]2[C@@H](O)C=C[C@H]3[C@H]1C5 [nalorphine]
effect of nalorphine on withdrawal symptoms ([1]; in vivo, sc): the above symptoms would be more obvious

CCN1CC2(OC(=O)c3ccccc3NC(C)=O)CCC(OC)C34C1C(CC23)C1(O)CC(OC)C2CC4C1(O)C2OC (stereo not shown) [Lappaconitine hydrobromide, lappaconitine hydrobromide]
behaviour after administration (mice [2]; mouse, in vivo): looked quiet and immobile and showed no pilo-erection reaction
jumping reaction after injection of allyl dromaran (mice [2]; mouse, in vivo): no jumping reaction
drug dependence (conclusion of Table 4) (mice [3]; mouse jumping test): does not cause drug dependence
Jumping Mice/Survived Mice, Day 1 after stopping drug (Morphine-dependent Mice; [12]): 0/10
Jumping Mice/Survived Mice, Day 4 after stopping administration (Morphine-dependent Mice; [12]): 0/10
Jumping Mice/Survived Mice, Day 5 of treatment (Morphine-dependent Mice; [12]): 1/10
number of jumps of the one jumping mouse (Morphine-dependent Mice; footnote *^3, 0.45 mg/g (so in the source) sc group, Day 5): five

CCN1CC2(OC(=O)c3ccccc3N)CCC(OC)C34C1C(CC23)C1(O)CC(OC)C2CC4C1(O)C2OC (stereo not shown) [N-deacetyllappaconitine hydrobromide, N-deacetyl-lappaconitine hydrobromide]
Jumping Mice/Survived Mice, Day 1 after stopping drug (Morphine-dependent Mice; 5 mg/g (so in the source) sc): 0/10
Jumping Mice/Survived Mice, Day 4 after stopping administration (Morphine-dependent Mice; 5 mg/g (so in the source) sc): 0/10
Jumping Mice/Survived Mice, Day 5 of treatment (Morphine-dependent Mice; 5 mg/g (so in the source) sc): 0/10

CCN1CC2(OC(=O)c3ccccc3NC(C)=O)CCC(OC)C34C1C(CC23)C1(O)CC(OC)C2CC4C1(O)C2OC (stereo not shown) [Lappaconitine]
toxic reaction and electrocardiography ([4]; 2 mg/kg sc, two monkeys): No toxic reaction and no effect on electrocardiography were observed
electrocardiography examination ([4]; 3 mg/kg sc): T wave had elevation, T wave and P wave fused, and R wave became smaller and notching
toxic reactions ([4]; 3 mg/kg sc, 30 minutes after injection): restlessness, slobbering, increased swallowing, drooping eyelids, and rigidity of leg muscles
convulsion and death of one monkey ([4]; 3 mg/kg sc, from 45 minutes): The convulsion still continued until death after 1 hr
duration of toxic reaction in the other monkey ([4]; 3 mg/kg sc, no convulsion): 2 h
electrocardiography examination next day ([4]; 3 mg/kg sc, surviving monkey): normal
toxicity reactions ([5]; intraperitoneal, toxicity dosage): looked suppressive and immobile lying on stomach in cage, obvious suppression of respiration and showed convulsions before death
LD50 ([5]; rat, in vivo, ip, intraperitoneal injection, read-out: LD50 (95 % confidence limit)): 16.5 mg/kg
jumping times of each mouse (mice [2]; mouse, in vivo): 0.2
number of jumping mice (mice [2]; mouse, in vivo): 1
toxicity reactions at lethal dosage ([6]; lethal dosage): paroxysmal convulsion, respiration suppression until suffocation, and death
LD50 ([6]; intravenous injection): 8.4 mg/kg
LD50 ([6]; po, intra gasteria): 32.4 mg/kg
LD50 ([6]; sc, subcutaneous injection): 11.7 mg/kg
toxicity reactions ([6]; toxicity dosages): paroxysmal restlessness, and foreleg tic
behaviour of morphine-withdrawn rats after injection (Morphine-dependent rats; rat, in vivo): still looked suppressive
weight change of morphine-withdrawn rats after injection (Morphine-dependent rats; rat, in vivo): no weight increase was observed
substitution for morphine (Morphine-dependent rats; rat, in vivo, sc, 8 mg/kg): did not act as a substitution for morphine
withdrawal symptoms after nalorphine (Macaca mulatta; 18 hours after discontinuing on day 29, 53, 59, 67 and 90, nalorphine 4 or 8 mg/kg sc): No withdrawal symptoms were observed
behavior and appetite after stopping injections (Macaca mulatta; 24 hours following stop on day 63 and day 92): no different behavior and appetite from that before stopping injection
dependence after long term use (Macaca mulatta; monkeys): does not cause dependence after long term use
mice died of accumulated toxicity during the administration (mice [3]; initial 3.5 mg/kg, total 45.5 mg/kg in 2 days, of 10 mice): five
jumping times of each mouse (mice [3]; mouse, in vivo): 0
number of jumping mice (mice [3]; mouse, in vivo): 0
jumping times of each mouse (mice [3]; [13]): 0
number of jumping mice (mice [3]; [13]): 0
Histological and pathological examinations [7, 14]: stimulating reaction, except a little edema and hydrodenaturation in the liver and increasing cerebral colloid cells
electrocardiographic examination [7, 14]: No obvious change
toxic reaction during administration [7, 14]: No toxic reaction
MTD ([7]; rhesus monkey, in vivo, monkey, sc twice a day, escalated from 0.1 mg/kg within 50 days, read-out: maximum tolerance dosage / highest tolerated dosage): 2 mg/kg
electrocardiography examination [8]: No obvious change
hepatic and renal function and histological and pathological examination of viscera [8]: No change was observed
weight increase compared to control [8]: inhibited weight increase at different levels
weight increase compared to control [9]: a little suppressed
recovery of cocaine-treated mice ([10]; mouse, in vivo): recovered to normal
effect on withdrawal symptoms of morphine-dependent monkeys ([1]; in vivo): could not relieve or weaken the above withdrawal symptoms
substitute for morphine ([1]; in vivo, sc, 2 mg/kg): does not act as a substitute for morphine

CCC(=O)C(CC(C)N(C)C)(c1ccccc1)c1ccccc1 (stereo not shown) [methadone]
dependence potential of 100 mg of oral methadone [11]: equivalent to that of 10 mg of injected morphine

COC(=O)[C@H]1[C@@H](OC(=O)c2ccccc2)C[C@@H]2CC[C@H]1N2C [cocaine, reference compound]
abnormal signs during injection of cocaine ([10]; 10 mg/kg sc twice a day, 7 days): anorexia, pilo-erection, and frequent walking with holding tail, and the like

CCN1CC2(O)CCC(OC)C34C1C(CC23)C1(O)CC(OC)C2CC4C1(O)C2OC (stereo not shown) [Lappaconine hydrobromide, lappaconine hydrobromide]
Jumping Mice/Survived Mice, Day 1 after stopping drug (Morphine-dependent Mice; 5 mg/g (so in the source) sc): 0/10
Jumping Mice/Survived Mice, Day 4 after stopping administration (Morphine-dependent Mice; 5 mg/g (so in the source) sc): 0/10
Jumping Mice/Survived Mice, Day 5 of treatment (Morphine-dependent Mice; 5 mg/g (so in the source) sc): 0/10

CN1CC[C@]23c4c5ccc(O)c4O[C@H]2[C@@H](O)C=C[C@H]3[C@H]1C5.Cl [Morphine, morphine hydrochloride, reference compound]
jumping times of each mouse (mice [2]; allyl-dromaran 10 mg/kg ip, 20 days: morphine 80 mg/kg (total 1600), lappaconitine 8.0 mg/kg (total 160)): 34
average weight loss per rat (Morphine-dependent rats; 24 hours after discontinuing morphine (25 mg/kg sc twice a day, 12 weeks)): 25 g
behaviour of morphine-withdrawn rats after injection (Morphine-dependent rats; morphine hydrochloride 25 mg/kg sc or lappaconitine hydrobromide 8 mg/kg sc): turned to being excited from being suppressive, moved increasingly, frequently took food and water
weight change of morphine-withdrawn rats after injection (Morphine-dependent rats; within 8 hours, morphine hydrochloride 25 mg/kg sc or lappaconitine hydrobromide 8 mg/kg sc): the weight increased to the level shown very quickly before stopping injection of morphine
jumping times of each mouse (mice [3]; nalorphine 50 mg/kg, 2 days: morphine initial 2.5 mg/kg (total 157.5), lappaconitine initial 3.5 mg/kg (total 35)): 9
Withdrawal Syndrome, Nalorphine 0.5 mg/kg sc ([1]; Table 5, per monkey (No. 7, 8) and day): +
dependence in monkeys ([1]; sc twice a day until the 30th day): showed dependence on morphine
effect on withdrawal symptoms of morphine-dependent monkeys ([1]; sc, lappaconitine 2 mg/kg, 18 hours after stopping morphine): obviously reduced or disappeared

From patent US5547956A, “Pharmaceutical composition and the method for treating drug addicts' withdrawal syndromes and detoxifying addicts by the same” (priority 1991, dated 1996)
